ChEMBL document CHEMBL4765227, “Hit to lead optimization of a series of N-[4-(1,3-benzothiazol-2-yl)phenyl]acetamides as monoacylglycerol lipase inhibitors with potential anticancer activity” (Eur J Med Chem, 2016)

Key:
Type in all cases: functional
Conditions in all cases: read-out: GI
NCI-H522 = assay: Growth inhibition of human NCI-H522 cells at 10 uM incubated for 48 hrs by sulforhodamine B assay relative to control
UACC-62 = assay: Growth inhibition of human UACC-62 cells at 10 uM incubated for 48 hrs by sulforhodamine B assay relative to control
HOP-62 = assay: Growth inhibition of human HOP-62 cells at 10 uM incubated for 48 hrs by sulforhodamine B assay relative to control
OVCAR-8 = assay: Growth inhibition of human OVCAR-8 cells at 10 uM incubated for 48 hrs by sulforhodamine B assay relative to control
NCI-H226 = assay: Growth inhibition of human NCI-H226 cells at 10 uM incubated for 48 hrs by sulforhodamine B assay relative to control
MDA-MB-468 = assay: Growth inhibition of human MDA-MB-468 cells at 10 uM incubated for 48 hrs by sulforhodamine B assay relative to control
SW-620 = assay: Growth inhibition of human SW-620 cells at 10 uM incubated for 48 hrs by sulforhodamine B assay relative to control
K562 = assay: Growth inhibition of human K562 cells at 10 uM incubated for 48 hrs by sulforhodamine B assay relative to control
MDA-MB-231 = assay: Growth inhibition of human MDA-MB-231 cells at 10 uM incubated for 48 hrs by sulforhodamine B assay relative to control
MOLT-4 = assay: Growth inhibition of human MOLT-4 cells at 10 uM incubated for 48 hrs by sulforhodamine B assay relative to control
SN12C = assay: Growth inhibition of human SN12C cells at 10 uM incubated for 48 hrs by sulforhodamine B assay relative to control
MDA-MB-435 = assay: Growth inhibition of human MDA-MB-435 cells at 10 uM incubated for 48 hrs by sulforhodamine B assay relative to control
HCC 2998 = assay: Growth inhibition of human HCC 2998 cells at 10 uM incubated for 48 hrs by sulforhodamine B assay relative to control
KM12 = assay: Growth inhibition of human KM12 cells at 10 uM incubated for 48 hrs by sulforhodamine B assay relative to control
SK-MEL-5 = assay: Growth inhibition of human SK-MEL-5 cells at 10 uM incubated for 48 hrs by sulforhodamine B assay relative to control
NCI-H322M = assay: Growth inhibition of human NCI-H322M cells at 10 uM incubated for 48 hrs by sulforhodamine B assay relative to control
IGROV-1 = assay: Growth inhibition of human IGROV-1 cells at 10 uM incubated for 48 hrs by sulforhodamine B assay relative to control
T47D = assay: Growth inhibition of human T47D cells at 10 uM incubated for 48 hrs by sulforhodamine B assay relative to control
CCRF-CEM = assay: Growth inhibition of human CCRF-CEM cells at 10 uM incubated for 48 hrs by sulforhodamine B assay relative to control
SK-OV-3 = assay: Growth inhibition of human SK-OV-3 cells at 10 uM incubated for 48 hrs by sulforhodamine B assay relative to control
ACHN = assay: Growth inhibition of human ACHN cells at 10 uM incubated for 48 hrs by sulforhodamine B assay relative to control
BT-549 = assay: Growth inhibition of human BT-549 cells at 10 uM incubated for 48 hrs by sulforhodamine B assay relative to control
SK-MEL-28 = assay: Growth inhibition of human SK-MEL-28 cells at 10 uM incubated for 48 hrs by sulforhodamine B assay relative to control
RXF 393 = assay: Growth inhibition of human RXF 393 cells at 10 uM incubated for 48 hrs by sulforhodamine B assay relative to control
TK-10 = assay: Growth inhibition of human TK-10 cells at 10 uM incubated for 48 hrs by sulforhodamine B assay relative to control
HOP-92 = assay: Growth inhibition of human HOP-92 cells at 10 uM incubated for 48 hrs by sulforhodamine B assay relative to control
PC-3 = assay: Growth inhibition of human PC-3 cells at 10 uM incubated for 48 hrs by sulforhodamine B assay relative to control
HL-60(TB) = assay: Growth inhibition of human HL-60(TB) cells at 10 uM incubated for 48 hrs by sulforhodamine B assay relative to control
UO-31 = assay: Growth inhibition of human UO-31 cells at 10 uM incubated for 48 hrs by sulforhodamine B assay relative to control
OVCAR-5 = assay: Growth inhibition of human OVCAR-5 cells at 10 uM incubated for 48 hrs by sulforhodamine B assay relative to control
M14 = assay: Growth inhibition of human M14 cells at 10 uM incubated for 48 hrs by sulforhodamine B assay relative to control
CAKI-1 = assay: Growth inhibition of human CAKI-1 cells at 10 uM incubated for 48 hrs by sulforhodamine B assay relative to control
DU-145 = assay: Growth inhibition of human DU-145 cells at 10 uM incubated for 48 hrs by sulforhodamine B assay relative to control
RPMI-8226 = assay: Growth inhibition of human RPMI-8226 cells at 10 uM incubated for 48 hrs by sulforhodamine B assay relative to control
HCT-116 = assay: Growth inhibition of human HCT-116 cells at 10 uM incubated for 48 hrs by sulforhodamine B assay relative to control
A549 = assay: Growth inhibition of human A549/ATCC cells at 10 uM incubated for 48 hrs by sulforhodamine B assay relative to control
NCI-H460 = assay: Growth inhibition of human NCI-H460 cells at 10 uM incubated for 48 hrs by sulforhodamine B assay relative to control
U-251 = assay: Growth inhibition of human U-251 cells at 10 uM incubated for 48 hrs by sulforhodamine B assay relative to control
SNB-19 = assay: Growth inhibition of human SNB-19 cells at 10 uM incubated for 48 hrs by sulforhodamine B assay relative to control
HCT-15 = assay: Growth inhibition of human HCT-15 cells at 10 uM incubated for 48 hrs by sulforhodamine B assay relative to control
SNB-75 = assay: Growth inhibition of human SNB-75 cells at 10 uM incubated for 48 hrs by sulforhodamine B assay relative to control
HT-29 = assay: Growth inhibition of human HT-29 cells at 10 uM incubated for 48 hrs by sulforhodamine B assay relative to control
Malme-3M = assay: Growth inhibition of human Malme-3M cells at 10 uM incubated for 48 hrs by sulforhodamine B assay relative to control
NCI/ADR-RES = assay: Growth inhibition of human NCI/ADR-RES cells at 10 uM incubated for 48 hrs by sulforhodamine B assay relative to control

Compound: O=C(CNC1CCCCC1)Nc1ccc(-c2nc3ccccc3s2)cc1
- inhibition of growth at 10 µM (NCI-H522): 4.54%
- inhibition of growth at 10 µM (UACC-62): 3.76%
- inhibition of growth at 10 µM (HOP-62): 14.8%
- inhibition of growth at 10 µM (OVCAR-8): 0.73%
- inhibition of growth at 10 µM (NCI-H226): 19.7%
- inhibition of growth at 10 µM (MDA-MB-468): 64.1%
- inhibition of growth at 10 µM (SW-620): -0.38%
- inhibition of growth at 10 µM (K562): 50.5%
- inhibition of growth at 10 µM (MDA-MB-231): 53.8%
- inhibition of growth at 10 µM (MOLT-4): 45.9%
- inhibition of growth at 10 µM (SN12C): 13.3%
- inhibition of growth at 10 µM (MDA-MB-435): 9.63%
- inhibition of growth at 10 µM (HCC 2998): 12.7%
- inhibition of growth at 10 µM (KM12): 16.1%
- inhibition of growth at 10 µM (SK-MEL-5): 9.16%
- inhibition of growth at 10 µM (NCI-H322M): 8.27%
- inhibition of growth at 10 µM (IGROV-1): -0.35%
- inhibition of growth at 10 µM (T47D): 30.9%
- inhibition of growth at 10 µM (CCRF-CEM): 22.7%
- inhibition of growth at 10 µM (SK-OV-3): 9.23%
- inhibition of growth at 10 µM (ACHN): 0.89%
- inhibition of growth at 10 µM (BT-549): 12.4%
- inhibition of growth at 10 µM (SK-MEL-28): 4.77%
- inhibition of growth at 10 µM (RXF 393): 31.5%
- inhibition of growth at 10 µM (TK-10): -2.86%
- inhibition of growth at 10 µM (HOP-92): 51.2%
- inhibition of growth at 10 µM (PC-3): 20.3%
- inhibition of growth at 10 µM (HL-60(TB)): 33.2%
- inhibition of growth at 10 µM (UO-31): 43.5%
- inhibition of growth at 10 µM (OVCAR-5): 5.32%
- inhibition of growth at 10 µM (M14): 10.6%
- inhibition of growth at 10 µM (CAKI-1): 14%
- inhibition of growth at 10 µM (DU-145): 10.7%
- inhibition of growth at 10 µM (RPMI-8226): 22.4%
- inhibition of growth at 10 µM (HCT-116): 23%
- inhibition of growth at 10 µM (A549): 12%
- inhibition of growth at 10 µM (NCI-H460): 8.69%
- inhibition of growth at 10 µM (U-251): 34.9%
- inhibition of growth at 10 µM (SNB-19): 9.04%
- inhibition of growth at 10 µM (HCT-15): 37.1%
- inhibition of growth at 10 µM (SNB-75): 32.7%
- inhibition of growth at 10 µM (HT-29): 37.7%
- inhibition of growth at 10 µM (Malme-3M): -5.44%
- inhibition of growth at 10 µM (NCI/ADR-RES): 11%
